Tests used:
EGFR = EGFR (Homo sapiens (Human), UniProt P00533); assay: Kinase inhibition, Mobility Shift Assay (EGFR); assay type: biochemical
Experimental: (§1) This assay directly monitored the ability of compounds to inhibit kinase phosphorylation by measuring non-phosphorylated and phosphorylated substrates in kinase reactions by using Mobility Shift Assays/IMAP™ analysis.
(§2) Add the kinase and DTT to 1× kinase buffer to form a 2.5× kinase solution; transfer 10 μL of 2.5× kinase solution to a 384-well reaction plate and add 1× kinase buffer to negative control wells. Incubate the plate for 10 min at room temperature; add FAM-labeled peptides, MgCl2, ATP and other reagents to 1× kinase buffer to form a 2.5× substrate solution; transfer 10 μL of the above 2.5× substrate solution to the 384-well reaction plate; incubate the plate at 28° C. for different times, and add 25 μL of stop solution to the 384-well reaction plate to stop the reaction. Read the conversion ratio data on CaliperEZ Reader II. Convert conversion rates into inhibition ratio data.
(§3) “Min” indicates the readout of the control well without the addition of kinase; and “Max” indicates the readout of the control well with the addition of DMSO. Fit IC50 values with XLFit excel add-in version 5.4.0.8.
(§4) X indicates the log value of compound concentration, and Y indicates the inhibition ratio (% inhibition).

melanin = assay: Binding capacity of compounds to melanin; assay type: in vitro ADME; conditions: Sepia officinalis (cuttlefish), melanin suspension (1 mg/mL); 1 mg/mL melanin suspension in PBS pH 7.4, 2 μM compound, 2 h at 37° C.; read-out: Fu % (percentage of free drug, not bound to melanin)
Description: Pigmented eye tissues contain melanin in intracellular melanosomes. Drugs bind to melanin to varying degrees, ranging from non-binding to extensive binding. Therefore, melanin binding is an important feature that affects drug delivery and biodistribution in the eye. The binding capacity of a compound to the melanin must be considered in the development of ophthalmic drugs.
Melanin was derived from the melanin of cuttlefish (Sepia officinalis) and was commercially available from Sigma Aldrich (St Louis, MO).
First, prepare 1 mg/mL melanin suspension with PBS (pH 7.4). As a washing step for the matrix, centrifuge the suspended particles for 5 min at 3000 rpm. Resuspend the resulting particles in a fresh PBS buffer, heat to 37° C. over continuous shaking and incubate it for 1 h. Accurately pipette 2 μL of the test stock solution (0.1 mM) into 98 μL of melanin suspension (1 mg/mL) to achieve a final incubation concentration of 2 μM. Similarly, accurately pipette 2 μL of the stock solution (0.1 mM) to 98 μL of PBS buffer (containing 0.1% BSA) as a blank control sample. Incubate the samples in a shaker (80-90 rpm) for 2 h at 37° C. Then, centrifuge the samples at room temperature. Pipette 50 μL of the supernatant and add 50 μL of precipitant (containing an internal standard). After protein precipitation of all the above samples, centrifuge the samples to collect the supernatants, dilute the supernatants with water (if necessary) and inject them for analysis. At the same time, measure the positive controls, including the high-binding compounds Sunitinib and chloroquine and the low-binding compound celecoxib. Establish an LC-MS/MS method for determining compound concentrations, and calibrate the peak area ratio of analyte/internal standard (Analyte/AIS) in the measured sample by the dilution factor to take it as an alternative concentration for the sample for data processing. The binding rate (Fh) of a compound in melanin was calculated as: […]
Ctest was the concentration of the compound in the melanin-incubated sample or the peak area ratio of the test compound to the internal standard. Ccontrol was the concentration of the compound in the blank control sample or the peak area ratio of the test compound to the internal standard. Percentage of free drug (Fu %)=100−Fb The binding rates of the compounds of the present invention to melanin are shown in the table below: […]

FLT1 (VEGFR1) = FLT1 (VEGFR1) (Homo sapiens (Human), UniProt P17948); assay: Kinase inhibition, Mobility Shift Assay (VEGFR1); assay type: biochemical
Sequence of FLT1 (VEGFR1) (P17948 27-1338): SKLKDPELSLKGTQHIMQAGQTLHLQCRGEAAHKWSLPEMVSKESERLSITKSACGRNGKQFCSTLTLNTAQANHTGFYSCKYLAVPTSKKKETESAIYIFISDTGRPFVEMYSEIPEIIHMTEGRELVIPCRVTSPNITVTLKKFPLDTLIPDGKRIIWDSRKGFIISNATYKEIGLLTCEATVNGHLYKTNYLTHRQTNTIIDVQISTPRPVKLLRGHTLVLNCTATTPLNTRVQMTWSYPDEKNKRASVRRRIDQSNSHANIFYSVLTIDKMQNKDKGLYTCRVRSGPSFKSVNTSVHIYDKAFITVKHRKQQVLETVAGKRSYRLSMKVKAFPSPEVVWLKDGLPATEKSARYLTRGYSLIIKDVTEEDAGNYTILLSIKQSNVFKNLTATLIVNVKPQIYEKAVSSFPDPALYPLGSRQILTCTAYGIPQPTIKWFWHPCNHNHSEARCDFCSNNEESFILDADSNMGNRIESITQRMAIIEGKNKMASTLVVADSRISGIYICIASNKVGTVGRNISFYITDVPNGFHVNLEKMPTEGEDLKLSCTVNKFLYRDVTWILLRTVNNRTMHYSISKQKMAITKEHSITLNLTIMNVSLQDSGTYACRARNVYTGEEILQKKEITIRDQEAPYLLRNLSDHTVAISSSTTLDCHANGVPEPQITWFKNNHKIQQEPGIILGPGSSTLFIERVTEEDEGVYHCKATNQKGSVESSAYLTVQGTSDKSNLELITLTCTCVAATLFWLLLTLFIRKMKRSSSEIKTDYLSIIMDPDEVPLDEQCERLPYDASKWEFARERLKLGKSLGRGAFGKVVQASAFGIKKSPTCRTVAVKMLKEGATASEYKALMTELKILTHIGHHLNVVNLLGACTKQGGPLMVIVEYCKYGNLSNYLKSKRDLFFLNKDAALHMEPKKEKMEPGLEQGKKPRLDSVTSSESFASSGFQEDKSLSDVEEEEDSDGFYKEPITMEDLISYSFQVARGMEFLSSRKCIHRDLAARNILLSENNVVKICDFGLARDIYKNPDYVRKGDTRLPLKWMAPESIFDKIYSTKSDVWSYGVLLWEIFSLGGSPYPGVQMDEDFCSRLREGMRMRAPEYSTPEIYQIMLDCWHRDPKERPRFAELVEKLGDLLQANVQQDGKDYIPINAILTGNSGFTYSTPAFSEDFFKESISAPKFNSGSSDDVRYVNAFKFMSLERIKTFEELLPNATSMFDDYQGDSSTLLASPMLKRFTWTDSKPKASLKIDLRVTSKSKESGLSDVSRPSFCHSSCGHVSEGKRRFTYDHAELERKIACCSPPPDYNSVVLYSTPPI
Experimental: as §1, §2, §3, §4

KDR (VEGFR2) = KDR (VEGFR2) (Homo sapiens (Human), UniProt P35968); assay: Kinase inhibition, Mobility Shift Assay (VEGFR2); assay type: biochemical
Sequence of KDR (VEGFR2) (P35968 790-1356): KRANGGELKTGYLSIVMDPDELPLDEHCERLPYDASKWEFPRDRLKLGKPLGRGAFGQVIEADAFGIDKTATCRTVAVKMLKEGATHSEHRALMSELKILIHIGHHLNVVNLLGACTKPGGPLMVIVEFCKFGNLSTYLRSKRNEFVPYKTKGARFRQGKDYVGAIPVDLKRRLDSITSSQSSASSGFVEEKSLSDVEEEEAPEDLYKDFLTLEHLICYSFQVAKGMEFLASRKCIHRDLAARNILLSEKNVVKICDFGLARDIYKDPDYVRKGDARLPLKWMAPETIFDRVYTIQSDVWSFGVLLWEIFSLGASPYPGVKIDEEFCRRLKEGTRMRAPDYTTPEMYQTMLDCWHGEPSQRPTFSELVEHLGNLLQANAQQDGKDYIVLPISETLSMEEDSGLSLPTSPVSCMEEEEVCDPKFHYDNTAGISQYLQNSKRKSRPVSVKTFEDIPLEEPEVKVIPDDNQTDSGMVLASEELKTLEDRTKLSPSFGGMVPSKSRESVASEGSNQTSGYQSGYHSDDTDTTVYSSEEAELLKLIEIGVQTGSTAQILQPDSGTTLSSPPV
Experimental: as §1, §2, §3, §4

FLT4 (VEGFR3) = FLT4 (VEGFR3) (Homo sapiens (Human), UniProt P35916); assay: Kinase inhibition, Mobility Shift Assay (VEGFR3); assay type: biochemical
Sequence of FLT4 (VEGFR3) (P35916 25-1363): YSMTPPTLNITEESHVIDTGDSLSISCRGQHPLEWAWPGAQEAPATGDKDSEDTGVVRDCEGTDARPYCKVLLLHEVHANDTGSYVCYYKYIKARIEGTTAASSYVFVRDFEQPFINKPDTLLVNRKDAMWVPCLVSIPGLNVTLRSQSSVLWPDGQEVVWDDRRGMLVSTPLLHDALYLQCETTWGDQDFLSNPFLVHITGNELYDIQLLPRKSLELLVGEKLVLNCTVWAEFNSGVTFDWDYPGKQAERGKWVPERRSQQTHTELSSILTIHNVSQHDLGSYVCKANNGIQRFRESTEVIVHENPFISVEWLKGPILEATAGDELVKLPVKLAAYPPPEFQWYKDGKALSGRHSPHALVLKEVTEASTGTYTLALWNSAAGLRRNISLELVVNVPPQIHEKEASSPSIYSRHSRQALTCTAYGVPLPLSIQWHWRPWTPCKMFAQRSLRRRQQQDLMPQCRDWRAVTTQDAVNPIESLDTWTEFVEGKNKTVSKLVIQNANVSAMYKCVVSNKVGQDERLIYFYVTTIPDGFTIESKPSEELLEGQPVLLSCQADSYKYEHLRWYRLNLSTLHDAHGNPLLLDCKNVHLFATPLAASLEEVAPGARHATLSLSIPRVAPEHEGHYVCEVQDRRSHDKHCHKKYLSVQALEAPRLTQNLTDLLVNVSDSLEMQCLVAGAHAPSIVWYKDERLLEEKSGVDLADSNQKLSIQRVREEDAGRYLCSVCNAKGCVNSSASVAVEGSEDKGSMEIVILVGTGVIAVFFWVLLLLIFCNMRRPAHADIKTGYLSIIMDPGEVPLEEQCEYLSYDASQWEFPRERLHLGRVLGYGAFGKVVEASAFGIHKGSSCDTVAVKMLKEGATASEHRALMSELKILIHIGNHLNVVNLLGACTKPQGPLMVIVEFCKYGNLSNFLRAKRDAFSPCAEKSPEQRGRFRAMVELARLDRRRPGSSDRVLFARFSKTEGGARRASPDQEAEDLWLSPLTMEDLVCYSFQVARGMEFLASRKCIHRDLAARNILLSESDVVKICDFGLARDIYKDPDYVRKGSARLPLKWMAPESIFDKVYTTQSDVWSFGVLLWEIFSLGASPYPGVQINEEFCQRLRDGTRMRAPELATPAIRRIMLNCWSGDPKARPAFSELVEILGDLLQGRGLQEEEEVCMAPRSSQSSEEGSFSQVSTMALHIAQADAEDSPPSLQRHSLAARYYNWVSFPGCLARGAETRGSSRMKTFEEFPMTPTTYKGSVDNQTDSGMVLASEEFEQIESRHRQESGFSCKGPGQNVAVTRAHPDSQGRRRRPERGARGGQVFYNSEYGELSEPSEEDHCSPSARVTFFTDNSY
Experimental: as §1, §2, §3, §4

Sequence of EGFR (P00533 25-1210): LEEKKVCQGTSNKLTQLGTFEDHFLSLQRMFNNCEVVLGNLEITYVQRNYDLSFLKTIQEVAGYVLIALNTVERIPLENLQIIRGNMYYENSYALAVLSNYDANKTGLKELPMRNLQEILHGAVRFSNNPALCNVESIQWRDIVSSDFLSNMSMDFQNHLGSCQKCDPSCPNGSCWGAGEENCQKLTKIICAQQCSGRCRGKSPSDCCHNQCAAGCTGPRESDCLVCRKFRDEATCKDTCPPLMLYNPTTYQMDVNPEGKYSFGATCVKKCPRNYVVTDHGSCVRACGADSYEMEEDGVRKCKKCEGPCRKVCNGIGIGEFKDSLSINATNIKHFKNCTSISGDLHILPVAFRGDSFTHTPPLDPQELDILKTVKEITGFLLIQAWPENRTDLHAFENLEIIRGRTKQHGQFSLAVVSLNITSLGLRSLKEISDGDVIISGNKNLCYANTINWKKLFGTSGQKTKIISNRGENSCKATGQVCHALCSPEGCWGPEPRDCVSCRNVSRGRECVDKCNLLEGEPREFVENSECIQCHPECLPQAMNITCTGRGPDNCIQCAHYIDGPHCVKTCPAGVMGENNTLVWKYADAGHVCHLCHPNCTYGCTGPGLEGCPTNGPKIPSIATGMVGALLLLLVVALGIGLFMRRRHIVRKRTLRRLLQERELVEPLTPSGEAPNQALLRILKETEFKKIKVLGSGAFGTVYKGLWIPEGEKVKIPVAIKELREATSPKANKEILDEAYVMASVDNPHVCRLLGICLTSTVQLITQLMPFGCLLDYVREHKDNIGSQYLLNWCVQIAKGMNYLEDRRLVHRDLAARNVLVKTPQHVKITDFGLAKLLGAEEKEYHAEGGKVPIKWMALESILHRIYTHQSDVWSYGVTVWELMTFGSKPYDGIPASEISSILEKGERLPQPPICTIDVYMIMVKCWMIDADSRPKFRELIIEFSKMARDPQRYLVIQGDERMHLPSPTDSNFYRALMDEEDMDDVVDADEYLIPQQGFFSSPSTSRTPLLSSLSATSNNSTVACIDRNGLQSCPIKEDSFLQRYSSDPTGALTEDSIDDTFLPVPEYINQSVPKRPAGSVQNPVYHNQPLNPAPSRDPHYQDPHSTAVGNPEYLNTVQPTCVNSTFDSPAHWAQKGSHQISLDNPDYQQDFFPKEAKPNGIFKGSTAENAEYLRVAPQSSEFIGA

| Compound | IC50 (EGFR) [nM] | fraction unbound at 2 h, 2 μM (melanin) | IC50 (FLT1 (VEGFR1)) [nM] | IC50 (KDR (VEGFR2)) [nM] | IC50 (FLT4 (VEGFR3)) [nM] |
| --- | --- | --- | --- | --- | --- |
| CNC(=O)c1ccccc1Sc1ccc2c(/C=C/c3ccc(OC[C@@H]4CCN(C)C4)cn3)n[nH]c2c1 [Compound I-39, N-methyl-2-({3-[(E)-2-(5-{[(3R)-1-methylpyrrolidin-3-yl]methoxy}pyridin-2-yl)vinyl]-1H-indazol-6-yl}thio)benzamide] | 6000 to 60000 | 0.01 to 0.05 | ≤ 1 | ≤ 1 | 1 to 10 |
| CNC(=O)c1cccc(F)c1Sc1ccc2c(/C=C/c3ccc(OCCN4CCCC4)cn3)n[nH]c2c1 [Compound I-33, 3-fluoro-N-methyl-2-({3-[(E)-2-{5-[2-(pyrrolidin-1-yl)ethoxy]pyridin-2-yl}vinyl]-1H-indazol-6-yl}thio)benzamide] | 6000 to 60000 | > 0.05 | 1 to 10 | 1 to 10 | 1 to 10 |
| CNC(=O)c1ccccc1Sc1ccc2c(/C=C/c3ccc(OCCN4CCN(C)CC4)cn3)n[nH]c2c1 [Compound I-4, N-methyl-2-({3-[(E)-2-{5-[2-(4-methylpiperazin-1-yl)ethoxy]pyridin-2-yl}vinyl]-1H-indazol-6-yl}thio)benzamide] | 6000 to 60000 | > 0.05 | ≤ 1 | ≤ 1 | ≤ 1 |
| O=C(NC1CC1)c1cc(F)ccc1Sc1ccc2c(/C=C/c3cc(OCCN4CCCC4)ccn3)n[nH]c2c1 [Compound I-118, N-cyclopropyl-5-fluoro-2-({3-[(E)-2-{4-[2-(pyrrolidin-1-yl)ethoxy]pyridin-2-yl}vinyl]-1H-indazol-6-yl}thio)benzamide] | > 60000 | < 0.01 | 10 to 100 | 1 to 10 | 10 to 100 |
| O=C(NC1CC1)c1ccccc1Sc1ccc2c(/C=C/c3ccc(OCCN4CCCC4)cn3)n[nH]c2c1 [Compound I-8, N-cyclopropyl-2-({3-[(E)-2-{5-[2-(pyrrolidin-1-yl)ethoxy]pyridin-2-yl}vinyl]-1H-indazol-6-yl}thio)benzamide] | 6000 to 60000 | 0.01 to 0.05 | 1 to 10 | 1 to 10 | 1 to 10 |
| CNC(=O)c1ccccc1Sc1ccc2c(/C=C/c3ccnc(OCCN4CCCC4)c3)n[nH]c2c1 [Compound I-18, N-methyl-2-({3-[(E)-2-{2-[2-(pyrrolidin-1-yl)ethoxy]pyridin-4-yl}vinyl]-1H-indazol-6-yl}thio)benzamide] | 6000 to 60000 | 0.01 to 0.05 | 1 to 10 | 1 to 10 | 1 to 10 |
| CNC(=O)c1ccccc1Sc1ccc2c(/C=C/c3cccc(OCCN4CCCC4)c3)n[nH]c2c1 [Compound I-15, N-methyl-2-({3-[(E)-2-{3-[2-(pyrrolidin-1-yl)ethoxy]phenyl}vinyl]-1H-indazol-6-yl}thio)benzamide] | 6000 to 60000 | 0.01 to 0.05 | 1 to 10 | 1 to 10 | 1 to 10 |
| CNC(=O)c1ccccc1Sc1ccc2c(/C=C/c3cccc(OCCN4CCCC4)n3)n[nH]c2c1 [Compound I-17, N-methyl-2-({3-[(E)-2-{6-[2-(pyrrolidin-1-yl)ethoxy]pyridin-2-yl}vinyl]-1H-indazol-6-yl}thio)benzamide] | 6000 to 60000 | 0.01 to 0.05 | 1 to 10 | 1 to 10 | 1 to 10 |
| CNC(=O)c1ccccc1Sc1ccc2c(/C=C/c3ccc(OCCN4CCCC4)nc3)n[nH]c2c1 [Compound I-19, N-methyl-2-({3-[(E)-2-{6-[2-(pyrrolidin-1-yl)ethoxy]pyridin-3-yl}vinyl]-1H-indazol-6-yl}thio)benzamide] | > 60000 | 0.01 to 0.05 | 1 to 10 | 1 to 10 | 1 to 10 |
| CNC(=O)c1ccccc1Sc1cnc2c(/C=C/c3ccccn3)n[nH]c2c1 [Compound I-21, N-methyl-2-({3-[(E)-2-(pyridin-2-yl)vinyl]-1H-pyrazolo[4,3-b]pyridin-6-yl}thio)benzamide] | 6000 to 60000 | 0.01 to 0.05 | 10 to 100 | 10 to 100 | 10 to 100 |
| CNC(=O)c1ccccc1Sc1ccc2c(/C=C/c3ccn(CCN4CCCC4)n3)n[nH]c2c1 [Compound I-13, N-methyl-2-({3-[(E)-2-{1-[2-(pyrrolidin-1-yl)ethyl]-1H-pyrazole-3-yl}vinyl]-1H-indazol-6-yl}thio)benzamide] | 6000 to 60000 | 0.01 to 0.05 | 1 to 10 | 1 to 10 | ≤ 1 |
| CN1CCN(c2ccc(/C=C/c3n[nH]c4cc(Sc5ccccc5C(=O)NC5CC5)ccc34)nc2)CC1 [Compound I-38, N-cyclopropyl-2-({3-[(E)-2-[5-(4-methylpiperazin-1-yl)pyridin-2-yl]vinyl]-1H-indazol-6-yl}thio)benzamide] | 600 to 6000 | 0.01 to 0.05 | ≤ 1 | ≤ 1 | ≤ 1 |
| CNC(=O)c1ccccc1Sc1ccc2c(/C=C/c3cnn(CCCN4CCCC4)c3)n[nH]c2c1 [Compound I-32, N-methyl-2-({3-[(E)-2-{1-[3-(pyrrolidin-1-yl)propyl]-1H-pyrazole-4-yl}vinyl]-1H-indazol-6-yl}thio)benzamide] | 6000 to 60000 | 0.01 to 0.05 | 1 to 10 | 1 to 10 | 1 to 10 |
| CNC(=O)c1ccccc1Sc1ccc2c(/C=C/c3cncc(OCCN4CCCC4)c3)n[nH]c2c1 [Compound I-22, N-methyl-2-({3-[(E)-2-{5-[2-(pyrrolidin-1-yl)ethoxy]pyridin-3-yl}vinyl]-1H-indazol-6-yl}thio)benzamide] | > 60000 | 0.01 to 0.05 | 10 to 100 | 10 to 100 | 10 to 100 |
| CCNC(=O)c1cccc(F)c1Sc1ccc2c(/C=C/c3cc(CCCN4CCCC4)ccn3)n[nH]c2c1 [Compound I-116, N-ethyl-3-fluoro-2-({3-[(E)-2-{4-[3-(pyrrolidin-1-yl)propyl]pyridin-2-yl}vinyl]-1H-indazol-6-yl}thio)benzamide] | > 60000 | 0.01 to 0.05 | 10 to 100 | 10 to 100 | 10 to 100 |
| CNC(=O)c1ccccc1Sc1ccn2c(/C=C/c3ccccn3)ncc2c1 [Compound I-27, N-methyl-2-({3-[(E)-2-(pyridin-2-yl)vinyl]imidazo[1,5-a]pyridin-7-yl}thio)benzamide] | 6000 to 60000 |  | > 100 | > 100 | > 100 |
| CNC(=O)c1ccccc1Sc1ccc2c(Nc3ccc(OCCN4CCCC4)cn3)n[nH]c2c1 [Compound I-30, N-methyl-2-{[3-({5-[2-(pyrrolidin-1-yl)ethoxy]pyridin-2-yl}amino)-1H-indazol-6-yl]thio}benzamide] | 6000 to 60000 |  | > 100 | > 100 | > 100 |
| CNC(=O)c1ccccc1Sc1ccc2c(/C=C/c3ccc(OCC4CCN(C)C4)cn3)n[nH]c2c1 (stereo not drawn) [Compound I-1, N-methyl-2-({3-[(E)-2-{5-[(1-methylpyrrolidin-3-yl)methoxy]pyridin-2-yl}vinyl]-1H-indazol-6-yl}thio)benzamide] |  | > 0.05 | ≤ 1 | ≤ 1 | ≤ 1 |
